Where a name gives a salt, the structure may show the parent alone.

This passage reports Ki results from patent publication US7598255B2 (Janssen Pharmaceutica NV, priority 2005, dated 2009).

Test [1] addresses T1, human recombinant 5-HT2C receptor (Homo sapiens, UniProt P28335).
T1 sequence (P28335 33-458): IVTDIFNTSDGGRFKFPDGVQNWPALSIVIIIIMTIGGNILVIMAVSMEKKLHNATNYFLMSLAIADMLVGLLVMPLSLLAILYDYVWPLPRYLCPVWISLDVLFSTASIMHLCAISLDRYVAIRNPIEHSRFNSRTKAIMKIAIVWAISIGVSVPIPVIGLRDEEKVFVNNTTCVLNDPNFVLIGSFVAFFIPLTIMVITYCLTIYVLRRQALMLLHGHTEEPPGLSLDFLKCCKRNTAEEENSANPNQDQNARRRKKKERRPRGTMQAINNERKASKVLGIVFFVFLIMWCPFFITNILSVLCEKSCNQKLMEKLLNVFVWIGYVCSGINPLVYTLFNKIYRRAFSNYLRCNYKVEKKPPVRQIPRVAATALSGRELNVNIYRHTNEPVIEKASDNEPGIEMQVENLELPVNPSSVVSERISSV
As to the kind of experiment: Affinity for 5HT2 receptor binding sites, h5-HT2C, [3H]mesulergine. Particulars: CHO h5-HT2C membranes.

In the next test the target is rat 5-HT7a receptor (Rattus norvegicus, UniProt P32305). Kind of test: Affinity for 5-HT7 receptor binding sites, radioligand binding with [3H]5-CT. Particulars: membranes of HEK-293 cells with rat 5-HT7a, 1 nM [3H]5-CT. The protocol: The affinity of the compounds described in this invention for the 5-HT7 receptor binding site was evaluated by single competition radioligand binding assay. The assay was performed on membranes prepared from HEK-293 cells that had been subjected to stable transfection with the rat 5-HT7a receptor (GB: NM022938). Cells were scraped from the culture plates, suspended in Tris-HCl 50 mM pH 7.5 and collected through centrifugation (1000 rpm for 5 min). The cell pellets were homogenized (Polytron, 15 s, setting 5) in 50 mM Tris-HCl (pH 7.5), 5 mM EDTA. Following centrifugation (15,000 rpm for 25 min), membranes (135 μg protein/mL) were resuspended in the same buffer and incubated for 60 min at RT with 1 nM [^3H]5-CT in the presence of increasing concentration of test compounds. Nonspecific binding was defined in the presence of 10 μM 5-HT. Incubation was stopped by rapid filtration using the cell harvester (Packard). Radioactivity was counted in a TopCount-NXT (Packard). Experiments were conducted in triplicate.
rat 5-HT7a receptor, sequence (P32305 whole entry): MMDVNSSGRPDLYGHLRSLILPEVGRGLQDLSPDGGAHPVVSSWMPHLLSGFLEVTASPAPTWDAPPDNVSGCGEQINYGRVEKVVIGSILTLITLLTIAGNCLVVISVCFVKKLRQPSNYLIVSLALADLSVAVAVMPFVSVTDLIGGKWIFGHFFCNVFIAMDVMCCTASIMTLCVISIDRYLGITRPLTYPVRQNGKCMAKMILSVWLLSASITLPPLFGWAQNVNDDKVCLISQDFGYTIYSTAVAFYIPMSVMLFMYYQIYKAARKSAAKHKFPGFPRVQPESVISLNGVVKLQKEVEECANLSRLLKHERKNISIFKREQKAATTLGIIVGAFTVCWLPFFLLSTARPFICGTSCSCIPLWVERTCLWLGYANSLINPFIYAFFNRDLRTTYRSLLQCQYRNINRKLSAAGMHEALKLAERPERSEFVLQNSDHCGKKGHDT

In the next test the target is 5-HT2A receptor (Homo sapiens, UniProt P28223). Kind of test: Affinity for 5-HT2A receptor binding sites, radioligand binding with [3H]ketanserin. Particulars: read-out: Ki 5-HT2A, rat cortex membranes (assay 2) or NIH3T3 h5-HT2A membranes (assay 3), table does not say which.
For another test, the target named is 5-HT2B receptor (Homo sapiens, UniProt P41595). As to the kind of experiment: Affinity for 5HT2 receptor binding sites, h5-HT2B, [3H]mesulergine. Particulars: CHO h5-HT2B membranes.
5-HT2B receptor, sequence (P41595 whole entry): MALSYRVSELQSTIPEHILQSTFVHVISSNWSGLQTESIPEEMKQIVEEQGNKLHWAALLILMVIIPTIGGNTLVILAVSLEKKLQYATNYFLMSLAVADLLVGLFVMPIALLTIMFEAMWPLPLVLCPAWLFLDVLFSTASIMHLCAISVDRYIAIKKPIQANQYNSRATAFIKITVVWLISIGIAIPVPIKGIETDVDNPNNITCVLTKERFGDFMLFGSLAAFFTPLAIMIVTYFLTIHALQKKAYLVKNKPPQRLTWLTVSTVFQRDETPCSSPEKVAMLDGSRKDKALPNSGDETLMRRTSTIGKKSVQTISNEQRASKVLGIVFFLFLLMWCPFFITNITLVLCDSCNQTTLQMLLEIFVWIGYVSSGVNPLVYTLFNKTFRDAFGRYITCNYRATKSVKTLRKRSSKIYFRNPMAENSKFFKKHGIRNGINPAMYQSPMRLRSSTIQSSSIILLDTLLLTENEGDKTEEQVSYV

Protocol for 5-HT2B receptor: Sigmoidal inhibition curves were generated and fitted by nonlinear regression analysis (GraphPad Prism).
Receptor binding was performed using the human recombinant 5-HT2A (GB: X57830), 5-HT2B (GB: Z36748) and 5-HT2C (GB: M81778) receptors. The affinity of the compounds for the 3 different human 5-HT2 receptor subtypes was evaluated by competitive radioligand binding assays using [^3H]ketanserin (h5-HT2A) or [^3H]mesulergine (h5-HT2B and h5-HT2C). The assays were performed on membranes prepared from NIH3T3 stably transfected with h5-HT2A or CHO stably transfected with h5-HT2B and h5-HT2C.

Broadly, the Ki is the dissociation constant of the complex between target and ligand, obtained from inhibition or displacement. As to `CC(C)(C)c1nc2c(c(-c3ccc(F)cc3)n1)CNCC2` [Example 1, 2-tert-Butyl-4-(4-fluoro-phenyl)-5,6,7,8-tetrahydro-pyrido[4,3-d]pyrimidine], the Ki amounted to 0.09 µM in test [1], 0.54 µM at rat 5-HT7a receptor, 0.004 µM at 5-HT2A receptor and 0.07 µM on 5-HT2B receptor.
As for `Fc1ccc(-c2nc(Cc3ccccc3)nc3c2CNCC3)cc1` [Example 2, 2-Benzyl-4-(4-fluoro-phenyl)-5,6,7,8-tetrahydro-pyrido[4,3-d]pyrimidine], the inhibitory constant (Ki) in test [1] was 0.51 µM; at rat 5-HT7a receptor, > 10 µM; on 5-HT2A receptor, 0.02 µM; at 5-HT2B receptor, 5 µM.
Regarding `CCC(C)c1nc2c(c(-c3ccc(C)cc3)n1)CNCC2` (stereo not shown) [Example 4, 2-sec-Butyl-4-p-tolyl-5,6,7,8-tetrahydro-pyrido[4,3-d]pyrimidine hydrochloride], the inhibition constant Ki in test [1] is 0.2 µM; on rat 5-HT7a receptor it was > 10 µM; on 5-HT2A receptor, 0.02 µM; on 5-HT2B receptor, 0.25 µM.
As to `Fc1ccc(-c2nc(C3CCC3)nc3c2CNCC3)cc1` [Example 5, 2-Cyclobutyl-4-(4-fluoro-phenyl)-5,6,7,8-tetrahydro-pyrido[4,3-d]pyrimidine hydrochloride], the Ki in test [1] is 0.25 µM; on rat 5-HT7a receptor it was > 10 µM; at 5-HT2A receptor, 0.013 µM; at 5-HT2B receptor, 0.35 µM.
Take `Cc1ccc(-c2nc(C3CCC3)nc3c2CNCC3)cc1` [Example 6, 2-Cyclobutyl-4-p-tolyl-5,6,7,8-tetrahydro-pyrido[4,3-d]pyrimidine]: the Ki in test [1] was 0.3 µM; at rat 5-HT7a receptor it was > 10 µM; on 5-HT2A receptor, 0.05 µM; at 5-HT2B receptor it was 0.2 µM.
Turning to `Fc1ccc(-c2nc(C3CC3)nc3c2CNCC3)cc1` [Example 7, 2-Cyclopropyl-4-(4-fluoro-phenyl)-5,6,7,8-tetrahydro-pyrido[4,3-d]pyrimidine], the Ki is 0.9 µM in test [1], > 10 µM on rat 5-HT7a receptor and 0.025 µM at 5-HT2A receptor.
For the molecule `FC(F)(F)c1ccc(-c2nc(Cc3ccccc3)nc3c2CNCC3)cc1` [Example 9, 2-Benzyl-4-(4-trifluoromethyl-phenyl)-5,6,7,8-tetrahydro-pyrido[4,3-d]pyrimidine], the inhibition constant Ki in test [1] is 7.5 µM; at rat 5-HT7a receptor it was 5 µM; at 5-HT2A receptor it was 1.35 µM; at 5-HT2B receptor, > 10 µM.
The corresponding values for `Fc1ccc(-c2nc(Cc3ccccc3)nc3c2CNCC3)cc1F` [Example 10, 2-Benzyl-4-(3,4-difluoro-phenyl)-5,6,7,8-tetrahydro-pyrido[4,3-d]pyrimidine] are 5 µM, > 10 µM, 0.2 µM and > 10 µM.
For `c1ccc(Cc2nc3c(c(-c4ccccc4)n2)CNCC3)cc1` [Example 11, 2-Benzyl-4-phenyl-5,6,7,8-tetrahydro-pyrido[4,3-d]pyrimidine], the inhibition constant Ki in test [1] was 2 µM; at rat 5-HT7a receptor it was > 10 µM; on 5-HT2A receptor, 0.1 µM; at 5-HT2B receptor, > 10 µM.
In the case of `Fc1cccc(-c2nc(Cc3ccccc3)nc3c2CNCC3)c1` [Example 12, 2-Benzyl-4-(3-fluoro-phenyl)-5,6,7,8-tetrahydro-pyrido[4,3-d]pyrimidine], the Ki in test [1] was 5 µM; at rat 5-HT7a receptor it was > 10 µM; on 5-HT2A receptor, 0.3 µM; at 5-HT2B receptor, > 10 µM.
Consider `CN1CCc2nc(Cc3ccc(F)cc3)nc(-c3ccc(F)cc3)c2C1` [Example 14, 2-(4-Fluoro-benzyl)-4-(4-fluoro-phenyl)-6-methyl-5,6,7,8-tetrahydro-pyrido[4,3-d]pyrimidine], for which the Ki in test [1] is 4 µM; at rat 5-HT7a receptor it was > 10 µM; at 5-HT2A receptor it was 0.03 µM; at 5-HT2B receptor, 4 µM.
`CN1CCc2nc(Cc3ccc(F)cc3)nc(-c3ccc(C#N)cc3)c2C1` [Example 15, 4-[2-(4-Fluoro-benzyl)-6-methyl-5,6,7,8-tetrahydro-pyrido[4,3-d]pyrimidin-4-yl]-benzonitrile]: the inhibition constant (Ki) in test [1] was > 10 µM; at rat 5-HT7a receptor, > 10 µM; on 5-HT2A receptor, 1 µM; at 5-HT2B receptor, > 10 µM.
For `N#Cc1ccc(-c2nc(Cc3ccc(F)cc3)nc3c2CNCC3)cc1` [Example 16, 4-[2-(4-Fluoro-benzyl)-5,6,7,8-tetrahydro-pyrido[4,3-d]pyrimidin-4-yl]-benzonitrile], the Ki in test [1] was > 10 µM; at rat 5-HT7a receptor it was > 10 µM; at 5-HT2A receptor, 2 µM; on 5-HT2B receptor, > 10 µM.
For the molecule `COc1ccc(-c2nc(C3CCCC3)nc3c2CNCC3)cc1` [Example 19, 2-Cyclopentyl-4-(4-methoxy-phenyl)-5,6,7,8-tetrahydro-pyrido[4,3-d]pyrimidine], the Ki in test [1] is 0.2 µM; on rat 5-HT7a receptor, > 10 µM; at 5-HT2A receptor, 0.1 µM; on 5-HT2B receptor, 0.14 µM.
As for `N#Cc1ccc(-c2nc(C3CCCC3)nc3c2CNCC3)cc1` [Example 20, 4-(2-Cyclopentyl-5,6,7,8-tetrahydro-pyrido[4,3-d]pyrimidin-4-yl)-benzonitrile], the Ki was > 10 µM in test [1], > 10 µM at rat 5-HT7a receptor, 0.7 µM on 5-HT2A receptor and 1.2 µM at 5-HT2B receptor.
As for `CC(C)c1nc2c(c(-c3ccc(F)cc3)n1)CN(C)CC2` [Example 22, 4-(4-Fluoro-phenyl)-2-isopropyl-6-methyl-5,6,7,8-tetrahydro-pyrido[4,3-d]pyrimidine], the inhibition constant Ki in test [1] is 1.3 µM; at rat 5-HT7a receptor it was > 10 µM; on 5-HT2A receptor, 0.032 µM; at 5-HT2B receptor, 0.5 µM.
As for `CC(C)c1nc2c(c(-c3ccc(Cl)c(Cl)c3)n1)CNCC2` [Example 23, 4-(3,4-Dichloro-phenyl)-2-isopropyl-5,6,7,8-tetrahydro-pyrido[4,3-d]pyrimidine hydrochloride], the inhibitory constant (Ki) in test [1] is > 10 µM; on rat 5-HT7a receptor, > 10 µM; on 5-HT2A receptor, 0.5 µM; on 5-HT2B receptor it was > 10 µM.
For the molecule `CC(C)c1nc2c(c(-c3ccc(F)c(F)c3)n1)CNCC2` [Example 24, 4-(3,4-Difluoro-phenyl)-2-isopropyl-5,6,7,8-tetrahydro-pyrido[4,3-d]pyrimidine hydrochloride], the Ki in test [1] was > 10 µM; at rat 5-HT7a receptor, > 10 µM; at 5-HT2A receptor it was 0.24 µM; at 5-HT2B receptor, > 10 µM.
As to `CC(C)c1nc2c(c(-c3cccc(F)c3)n1)CNCC2` [Example 25, 4-(3-Fluoro-phenyl)-2-isopropyl-5,6,7,8-tetrahydro-pyrido[4,3-d]pyrimidine], the inhibitory constant (Ki) in test [1] is > 10 µM; at rat 5-HT7a receptor, > 10 µM; on 5-HT2A receptor, 0.3 µM; at 5-HT2B receptor it was > 10 µM.
`CC(C)c1nc2c(c(-c3ccccc3F)n1)CNCC2` [Example 26, 4-(2-Fluoro-phenyl)-2-isopropyl-5,6,7,8-tetrahydro-pyrido[4,3-d]pyrimidine]: the inhibition constant (Ki) is > 10 µM in test [1], > 10 µM on rat 5-HT7a receptor, 0.3 µM at 5-HT2A receptor and > 10 µM on 5-HT2B receptor.
Take `CC(C)c1nc2c(c(-c3ccc(F)cc3F)n1)CNCC2` [Example 27, 4-(2,4-Difluoro-phenyl)-2-isopropyl-5,6,7,8-tetrahydro-pyrido[4,3-d]pyrimidine]: the inhibition constant (Ki) in test [1] is > 10 µM; at rat 5-HT7a receptor it was > 10 µM; on 5-HT2A receptor, 0.06 µM; on 5-HT2B receptor, > 10 µM.
As to `Cc1ccc(-c2nc(C(C)C)nc3c2CNCC3)cc1` [Example 28, 2-Isopropyl-4-p-tolyl-5,6,7,8-tetrahydro-pyrido[4,3-d]pyrimidine], the Ki was 3 µM in test [1], > 10 µM at rat 5-HT7a receptor, 0.1 µM at 5-HT2A receptor and 0.4 µM at 5-HT2B receptor.
Take `COc1ccc(-c2nc(C(C)C)nc3c2CNCC3)cc1` [Example 30, 2-Isopropyl-4-(4-methoxy-phenyl)-5,6,7,8-tetrahydro-pyrido[4,3-d]pyrimidine]: the Ki in test [1] was 2.5 µM; on rat 5-HT7a receptor, > 10 µM; at 5-HT2A receptor it was 0.8 µM; at 5-HT2B receptor it was 1 µM.
With `CC(C)Cc1nc2c(c(-c3ccc(F)cc3)n1)CNCC2` [Example 37, 4-(4-Fluoro-phenyl)-2-isobutyl-5,6,7,8-tetrahydro-pyrido[4,3-d]pyrimidine], the Ki in test [1] is 1 µM; on rat 5-HT7a receptor it was > 10 µM; at 5-HT2B receptor it was 0.4 µM.
Take `CNCCc1cc(-c2ccc(F)cc2)nc(C(C)(C)C)n1` [Example 166, {2-[2-tert-Butyl-6-(4-fluoro-phenyl)-pyrimidin-4-yl]-ethyl}-methyl-amine]: the Ki in test [1] was found to be 0.17 µM; on 5-HT2A receptor, 0.011 µM; on 5-HT2B receptor it was 0.018 µM.
